Experimental data taken from patent US8039668B2, “Naphthalene-based inhibitors of anti-apoptotic proteins” (Burnham Institute for Medical Research, priority 2008, dated 2011).
Blank lines part the entries; values can stand above or below the compound they belong to.

How the values were obtained:
[1] = target: T1, Bfl-1 (Homo sapiens, UniProt Q16548); experiment: Competitive fluorescence polarization assay (FPA); type: binding; conditions: vs Apogossypol
T1 sequence (Q16548 1-175): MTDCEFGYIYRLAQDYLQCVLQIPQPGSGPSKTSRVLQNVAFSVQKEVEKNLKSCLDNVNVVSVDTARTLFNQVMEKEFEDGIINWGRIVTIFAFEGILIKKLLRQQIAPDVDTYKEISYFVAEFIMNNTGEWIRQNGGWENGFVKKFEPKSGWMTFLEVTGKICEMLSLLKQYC

[2] = Liver microsomal stability; type: in vitro ADME, rat; conditions: Table 6; rat liver microsomes, 1 h
From the text: Liver Microsomal Stability.

[3] = tested on: Bax/Bak double knockout mouse embryonic fibroblast cells (MEF/DKO); experiment: FITC-Annexin V/PI cytotoxicity in Bax/Bak double knockout cells; type: cell-based; conditions: 10 μM
Experimental: MEF/WT and MEF/DKO cells were seeded in 24-well plate at a seeding density of half a million per well (in 1 ml of DMEM medium supplemented by 10% FCS). […] On the following day, floating cells were pooled with adherent cells harvested after brief incubation with 0.25% Trypsin/EDTA solution (Gibco/In-Vitrogen Inc.). Cells were centrifuged and supernatant was discarded, and cell pellet was re-suspended with 0.2 ml of Annexin-V binding buffer, followed by addition of 1 μl Annexin-FITC and 1 μl PI (propidium iodide). The percentage of viable cells was determined by a 3-color FACSort instrument and data analyzed by Flow-Jo program, scoring Annexin V-negative, PI-negative as viable cells.

[4] = tested on: BP3 human B-cell lymphoma cell line; experiment: Annexin V-FITC and propidium iodide assay; type: cell-based
[5] = Chemical stability of solid compounds at room temperature (HPLC, LCMS); conditions: in air, Apogossypol in the absence of ascorbic acid
From the text: The stability of compound was monitored using a combination of HPLC and LCMS.

[6] = target: T2, BCL-XL (Homo sapiens, UniProt Q07817); experiment: 1D 1H-NMR binding assay; parameters: key to 1D-^1H NMR: +++, Very Active; ++, Active; +, Mild; −, Weak; conditions: for 1D ^1H-NMR Binding Assay (BCL-XL): Table 9
Experimental: By observing the aliphatic region of the spectra, binding could be readily detected due to chemical shift changes in active site methyl groups of Ile, Leu, Thr, Val or Ala (region between −0.8 and 0.3 ppm). All experiments were performed with a 600 MHz spectrometer Bruker Avance 600 equipped with four rf channels and z-axis pulse-field gradients.
Target sequence in this assay (Q07817 whole entry): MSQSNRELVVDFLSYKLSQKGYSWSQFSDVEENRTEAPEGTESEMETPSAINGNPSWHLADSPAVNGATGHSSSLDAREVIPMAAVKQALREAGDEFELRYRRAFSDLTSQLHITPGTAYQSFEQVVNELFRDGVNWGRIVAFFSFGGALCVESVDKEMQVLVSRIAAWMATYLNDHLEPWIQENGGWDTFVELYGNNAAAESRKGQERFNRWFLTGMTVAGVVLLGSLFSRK

[7] = tested on: H460 human lung cell line; experiment: Cell viability, ATP-LITE assay; type: cell-based; conditions: for times more potent than Apogossypol, H460: vs Apogossypol; for EC50: Table 9, read-out: H460 EC50
Procedure, shortened: (§1)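 Human cancer lines were seeded at 2000 (H460, H1299), 3000 (PC3) or 10,000 (RS11846) cells/well in F12 or RPMI1640 with 5% FBS. Compounds were added in 0.1% DMSO 24 h after seeding. Viability was read by ATP-LITE luminescence after 72 h and normalized to DMSO controls.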

[8] = tested on: Balb/c mice
From the text: Upon conclusion of the study, mice were euthanized by CO2, and vital organs were harvested and fixed with z-FIX solution for 3 days at room temperature, rinsed in PBS three times, for further histological evaluation.

[9] = target: T2, BCL-XL; experiment: Competitive fluorescence polarization assay (FPA), Bak BH3 peptide; type: binding; parameters: 100 nM GST-BCL-XL ΔTM protein; conditions: for times more effective than Apogossypol, FP Bcl-XL: vs Apogossypol; for IC50: Table 9, read-out: FPA IC50 (BCL-XL)
Procedure, shortened: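 100 nM GST-BCL-XL ΔTM preincubated with compound in PBS pH 7.4 for 10 min at room temperature, then FITC-Bak BH3 peptide added. Polarization read after 10 min. IC50 from sigmoidal dose-response fit; mean ± SE of three independent experiments.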
Target sequence in this assay (Q07817 1-209 limits assumed): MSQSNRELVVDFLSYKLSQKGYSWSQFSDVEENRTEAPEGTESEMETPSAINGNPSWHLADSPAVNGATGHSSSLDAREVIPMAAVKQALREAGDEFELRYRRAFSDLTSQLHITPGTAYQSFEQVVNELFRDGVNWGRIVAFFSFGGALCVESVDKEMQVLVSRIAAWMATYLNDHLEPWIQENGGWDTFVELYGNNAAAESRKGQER

[10] = Plasma stability; type: in vitro ADME, rat
Experimental: Plasma Stability. A 20 μL aliquot of a 10 mM solution in DMSO of the test compound was added to 2.0 mL of heparinized rat plasma (Lampire, P1-150N) to obtain a 100 μM final solution. The mixture was incubated for 1 h at 37.5° C. Aliquots of 100 μL were taken (0, 30 min, 1 h) and diluted with 200 μL of MeOH containing internal standard.

[11] = target: T2, BCL-XL; experiment: Isothermal titration calorimetry (ITC); type: binding; conditions: vs Apogossypol
Experimental: Titrations were performed using a VP-ITC or ITC200 calorimeter from Microcal (Northampton, Mass.). BCL-XL was used at concentrations between 25 and 100 μM in 20 mM sodium phosphate buffer (pH 7.4) and 5-10% DMSO. Titrants were used at concentrations 10-15 fold of that of the protein in the same buffer. Titrations were carried out at 25° C. Data were analyzed using Microcal Origin software provided by the ITC manufacturer (Microcal, Northampton, Mass.).
Target sequence in this assay (Q07817 whole entry): as the sequence (Q07817 whole entry) above

[12] = tested on: B6Bcl-2 transgenic mice
Procedure, shortened: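 B6 line BCL-2 transgenic mice (human BCL-2 fused to IgH locus/enhancer, Balb/c background) sacrificed 24 h post-treatment by lethal i.p. Avertin. Spleen removed and weighed, fixed 3 days in z-FIX for H&E and TUNEL histology.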

[13] = PAMPA cell membrane permeability; type: in vitro ADME; conditions: Table 11; Low/Medium, not defined
From the text: PAMPA is parallel artificial membrane permeation assay.

[14] = target: Mcl-1 (Homo sapiens, UniProt Q07820); experiment: Competitive fluorescence polarization assay (FPA), Bim BH3 peptide; type: binding; conditions: vs Apogossypol
Sequence of Mcl-1 (Q07820 whole entry): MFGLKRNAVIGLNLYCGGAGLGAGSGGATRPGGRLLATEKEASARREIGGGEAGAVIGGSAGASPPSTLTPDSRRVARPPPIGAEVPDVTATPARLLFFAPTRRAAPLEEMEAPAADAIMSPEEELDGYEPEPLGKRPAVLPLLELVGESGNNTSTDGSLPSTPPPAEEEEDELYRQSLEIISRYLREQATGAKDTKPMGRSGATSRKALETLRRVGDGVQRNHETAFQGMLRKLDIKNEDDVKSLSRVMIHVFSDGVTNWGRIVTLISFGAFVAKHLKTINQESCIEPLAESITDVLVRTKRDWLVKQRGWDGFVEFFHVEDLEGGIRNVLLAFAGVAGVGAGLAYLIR

[15] = tested on: human lymphoma RS11846 cell line; experiment: Apoptosis, Annexin V-FITC and propidium iodide assay; type: cell-based; conditions: Homo sapiens, Table 9; read-out: RS11846 EC50 (Annexin V- and propidium iodide assay)
[16] = tested on: PC3ML cells; experiment: Cell viability, ATP-LITE assay; type: cell-based, human
Procedure, shortened: as §1

[17] = tested on: H1299 cell line; experiment: Cell viability, ATP-LITE assay; type: cell-based, human; conditions: Homo sapiens, NCI-H1299; Table 9; read-out: H1299 EC50
Procedure, shortened: as §1

[18] = tested on: RS11846 cell line; experiment: Cell viability, ATP-LITE assay; type: cell-based; conditions: Homo sapiens, Table 9; read-out: RS11846 EC50 (ATP-LITE assay)
Procedure, shortened: as §1

[19] = target: Bcl-2 (Homo sapiens, UniProt P10415); experiment: Competitive fluorescence polarization assay (FPA), Bim BH3 peptide; type: binding; conditions: vs Apogossypol
Sequence of Bcl-2 (P10415 whole entry): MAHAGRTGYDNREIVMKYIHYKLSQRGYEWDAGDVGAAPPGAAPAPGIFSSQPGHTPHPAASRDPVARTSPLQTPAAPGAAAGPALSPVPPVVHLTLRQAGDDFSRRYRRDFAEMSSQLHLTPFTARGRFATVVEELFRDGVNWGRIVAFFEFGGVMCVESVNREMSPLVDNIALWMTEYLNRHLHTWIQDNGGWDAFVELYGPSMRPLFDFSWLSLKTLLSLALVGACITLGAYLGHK

Compound: Cc1cc2c(C(=O)NCC(C)c3ccccc3)c(O)c(O)cc2c(O)c1-c1c(C)cc2c(C(=O)NCC(C)c3ccccc3)c(O)c(O)cc2c1O (stereo not drawn) [Compound 8r, 1,1′,6,6′,7,7′-hexahydroxy-3,3′-dimethyl-N^5,N^5′-bis(2-phenylpropyl)-2,2′-binaphthyl-5,5′-dicarboxamide]
- times more potent than Apogossypol, FP Bfl-1 [1]: approximately 10
- Microsomal Stability (T = 1 h) [2]: 76%
- MEF/DKO cells killed [3]: 20-35%
- EC50 ([4]; Homo sapiens, B-cell, Annexin V-FITC and propidium iodide assay, read-out: EC50 BP3): 660 nM
- times more potent than Apogossypol, BP3 ([4]; vs Apogossypol): 7-10
- degraded after 60 days at room temperature [5]: 10%
- 1D-^1H NMR ([6]; Table 3, BCL-XL 25 μM, compound 200 μM): ++
- IC50 ([7]; Homo sapiens, NCI-H460, read-out: IC50 inhibiting cell growth, H460): 330 nM
- times more potent than Apogossypol, H460 [7]: 7-10
- weight loss ([8]; mouse, in vivo, ip, 50 mg/kg): around 13%
- mortality ([8]; single ip 100, 75, 50, 25 and 12.5 mg/kg, 14 days): All mice were alive after 14 days
- times more effective than Apogossypol, FP Bcl-XL [9]: 5
- degraded after 1 hour incubation in rat plasma ([10]; 1 hour): 4%
- Plasma stability (T = 1 h) ([10]; Table 6, rat plasma, 1 h): 96%
- times more potent than Apogossypol, ITC Bcl-XL [11]: 15
- GI toxicity ([12]; B6Bcl-2 transgenic (Balb/c background), mouse, in vivo, 42 mg/kg, 24 h): mild signs of GI toxicity
- average weight loss of mice ([12]; mouse, in vivo, 42 mg/kg): 7.8%
- percentage of maximum reduction in spleen weight (maximal biological activity) ([12]; single ip 72 μmol/kg, maximum shrinkage no more than 50%): 85-95%
- spleen weight reduction ([12]; single mouse, single ip 72 μmol/kg): more than 40%

- Cell Permeability [13]: Medium
- times/fold more potent than Apogossypol, FP Mcl-1 [14]: ~5
- EC50 [15]: 3 to 5.5 µM
- EC50 [17]: 3.5 µM
- 1D ^1H-NMR Binding Assay (BCL-XL) [6]: +++
- EC50 ([7]; Homo sapiens, NCI-H460): 680 nM
- IC50 [9]: 190 nM
- times more effective than Apogossypol, FP Bcl-XL [9]: ~20
- times/fold more potent than Apogossypol, FP Bcl-2 [19]: approximately 8
- times more potent than Apogossypol, ITC Bcl-XL [11]: 10
Compound: Cc1cc2c(C(=O)Cc3ccccc3)c(O)c(O)cc2c(O)c1-c1c(C)cc2c(C(=O)Cc3ccccc3)c(O)c(O)cc2c1O [Compound I, 1,1′-(1,1′,6,6′,7,7′-hexahydroxy-3,3′-dimethyl-2,2′-binaphthyl-5,5′-diyl)bis(2-phenylethanone)]
- fold more potent than Apogossypol, PC3ML ([16]; vs Apogossypol): 2-5
- times more potent than Apogossypol, H460 [7]: 4-5
- EC50 [18]: 2600 nM
- reduction of spleen weight ([12]; groups of six mice, compound I): ~40%
- reduction in spleen weight ([12]; single BCL-2 transgenic mouse, 60 μmmol/kg): 40%

Compound: Cc1cc2c(C(=O)c3nc4ccccc4s3)c(O)c(O)cc2c(O)c1-c1c(C)cc2c(C(=O)c3nc4ccccc4s3)c(O)c(O)cc2c1O [Compound XVII, (1,1′,6,6′,7,7′-hexahydroxy-3,3′-dimethyl-2,2′-binaphthyl-5,5′-diyl)bis(benzo[d]thiazol-2-ylmethanone)]
- Cell Permeability [13]: Medium
- EC50 [15]: 7 µM
- EC50 ([16]; Homo sapiens, PC3-ML, Table 9, read-out: PC3ML EC50): 5.2 µM
- EC50 [17]: 5.8 µM
- 1D ^1H-NMR Binding Assay (BCL-XL) [6]: +
- EC50 ([7]; Homo sapiens, NCI-H460): 1400 nM
- EC50 [18]: 2900 nM
- IC50 [9]: 140 to 450 nM
